Series [1] addresses COX-1 (Homo sapiens, UniProt P23219). The settings on record: cited from earlier work.
For series [2], the target named is T1, COX-2 (Homo sapiens, UniProt P35354).
T1 sequence (P35354 18-604): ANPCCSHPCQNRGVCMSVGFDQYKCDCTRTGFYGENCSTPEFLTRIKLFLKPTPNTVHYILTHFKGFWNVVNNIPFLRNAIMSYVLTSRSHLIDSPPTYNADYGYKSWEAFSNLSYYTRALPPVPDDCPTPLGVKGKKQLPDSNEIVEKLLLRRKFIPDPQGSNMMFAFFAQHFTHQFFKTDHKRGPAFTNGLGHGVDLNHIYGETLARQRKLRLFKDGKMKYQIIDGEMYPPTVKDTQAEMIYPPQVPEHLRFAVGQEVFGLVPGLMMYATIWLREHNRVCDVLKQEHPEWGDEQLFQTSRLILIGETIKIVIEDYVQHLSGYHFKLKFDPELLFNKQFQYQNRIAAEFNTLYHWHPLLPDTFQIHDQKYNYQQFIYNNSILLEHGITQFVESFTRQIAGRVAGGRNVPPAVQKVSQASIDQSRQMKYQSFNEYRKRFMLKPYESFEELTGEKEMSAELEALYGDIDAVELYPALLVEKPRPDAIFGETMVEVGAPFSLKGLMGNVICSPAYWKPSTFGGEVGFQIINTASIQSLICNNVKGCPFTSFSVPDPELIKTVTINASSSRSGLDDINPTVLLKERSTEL
Briefly: COX-2 enzyme inhibition (Table 1, relative potency of ocular NSAIDs). The format is biochemical. The settings on record: ratio of IC50 values. An excerpt:
NSAIDs vary in their relative potency against COX-1 and COX-2. […] Several in vitro assays are used to determine IC50 values, making the values dependent upon the animal model (tissue and stimulus) used in the experiment and variable between laboratories. Thus, it is important that the assay type is defined when making comparisons between IC50 measurements.

Series [3] concerns the target T1, COX-2. The settings on record: cited from earlier work.
For series [4] the following is noted: eye drops; cited from earlier work.
Series [5] relates to choroidal neovascularization (CNV). Briefly: Laser photocoagulation-induced choroidal neovascularization in mice. Format: in vivo, C57BL/6J mice. The settings on record: 2 weeks of treatment after laser burn, versus saline, BF 0.1% topical 4 μL four times per day, sVEGFR-1/Fc 250 ng. As for the experimental part: Methods: Six-week female C57BL/6J mice received laser burns with 514-argon laser at the posterior retina; 19 mice with successful burns were randomly assigned to 1 of 3 treatment groups: BF 0.1%, saline with or without 250 ng sVEGFR-1/Fc immediately after laser burn. Mice were treated with 4 μL of BF 0.1% or saline four times per day for 2 weeks. Then deeply anaesthetized mice were perfused with 50 mg/mL flourescein-labeled dextran, eyes were enucleated and fixed in buffered formalin. Flat mounts of the RPE-choroid-sclera were observed by fluorescence microscope. Total area of hyperfluorescent neovascualature was measured using image-analysis software

The target in series [6] is T2, COX-2 purified from rabbit alveolar macrophage (Oryctolagus cuniculus, UniProt O02768).
T2 construct: from tissue; host or cells: rabbit alveolar macrophage
T2 sequence (O02768 18-604): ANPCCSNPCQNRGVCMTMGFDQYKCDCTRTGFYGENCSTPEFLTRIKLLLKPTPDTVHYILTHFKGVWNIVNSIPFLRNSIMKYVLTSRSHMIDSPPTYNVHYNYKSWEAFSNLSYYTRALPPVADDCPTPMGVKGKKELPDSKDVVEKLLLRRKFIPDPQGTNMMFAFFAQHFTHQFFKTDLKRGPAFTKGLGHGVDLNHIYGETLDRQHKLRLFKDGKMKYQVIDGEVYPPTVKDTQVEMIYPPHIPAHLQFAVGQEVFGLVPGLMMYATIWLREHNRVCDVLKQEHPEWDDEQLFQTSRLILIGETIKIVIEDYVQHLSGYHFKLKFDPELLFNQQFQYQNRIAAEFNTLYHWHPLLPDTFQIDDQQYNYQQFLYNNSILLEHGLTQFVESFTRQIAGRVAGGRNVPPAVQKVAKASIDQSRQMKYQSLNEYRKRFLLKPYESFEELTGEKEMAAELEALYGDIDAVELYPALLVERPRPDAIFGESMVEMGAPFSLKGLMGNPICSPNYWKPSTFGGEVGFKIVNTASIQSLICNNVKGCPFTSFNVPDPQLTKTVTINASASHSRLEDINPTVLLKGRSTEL
The following applies: cited from earlier work.

For series [7], the system named is prostaglandin synthesis. The settings on record: in vitro, relative to indomethacin; cited from earlier work.
Series [8] deals with T3, human recombinants COX-2 (Homo sapiens, UniProt P35354).
T3 sequence (P35354 18-604): T1 sequence (P35354 18-604)
The following applies: relative to ketorolac; cited from earlier work.

For series [9] the following is noted: cited from earlier work.

The values that follow come from US20110054031A1, “Ophthalmic NSAIDS as Adjuvants” (ISTA Pharmaceuticals, Inc., priority 2008, published 2011).

COX-1, sequence (P23219 24-599): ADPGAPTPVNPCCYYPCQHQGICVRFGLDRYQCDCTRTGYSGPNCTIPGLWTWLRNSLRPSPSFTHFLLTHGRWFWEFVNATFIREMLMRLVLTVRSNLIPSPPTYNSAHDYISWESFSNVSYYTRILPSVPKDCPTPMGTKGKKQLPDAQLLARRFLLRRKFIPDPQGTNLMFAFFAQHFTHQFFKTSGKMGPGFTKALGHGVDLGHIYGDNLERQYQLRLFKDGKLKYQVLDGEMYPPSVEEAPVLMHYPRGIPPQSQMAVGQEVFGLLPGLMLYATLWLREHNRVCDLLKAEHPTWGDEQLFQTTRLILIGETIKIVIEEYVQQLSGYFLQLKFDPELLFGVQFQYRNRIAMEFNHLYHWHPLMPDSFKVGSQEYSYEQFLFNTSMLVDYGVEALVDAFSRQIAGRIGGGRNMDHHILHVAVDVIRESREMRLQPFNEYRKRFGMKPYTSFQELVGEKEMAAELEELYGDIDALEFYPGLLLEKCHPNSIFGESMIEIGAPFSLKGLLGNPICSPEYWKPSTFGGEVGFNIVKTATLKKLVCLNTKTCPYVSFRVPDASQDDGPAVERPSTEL

As to `NC(CO)(CO)CO.O=C(c1ccccc1)c1ccc2n1CCC2C(=O)O` (racemic) [ketorolac, (±)-5-benzoyl-2,3-dihydro-1H pyrrolizine-1-carboxylic acid, 2-amino-2-(hydroxymethyl)-1,3-propanediol salt (1:1)], the half-inhibitory concentration (IC50) (as a rule, the point on the concentration scale where inhibition reaches its midpoint) in [1] is 20 nM; in series [3] it was 120 nM. Also, the “Ratio COX-1/COX-2” value in [2] was 0.167.
As for `Nc1c(CC(=O)[O-])cccc1C(=O)c1ccc(Br)cc1.Nc1c(CC(=O)[O-])cccc1C(=O)c1ccc(Br)cc1.O.O.O.[Na+].[Na+]` [bromfenac, sodium 2-amino-3-(4-bromobenzoyl)phenylacetate sesquihydrate], the “stability in aqueous solution” value in series [4] is listed as “stable for a long period of time”. Also, the “reduction of area of choroidal neovascularization (CNV lesions)” value in [5] turned out to be 71%. Further, the “inhibitory effect on COX-2, times greater than amfenac” value in series [6] (relative to amfenac) is reported as 6.5 times. Also, the “inhibitory effect on COX-2, times greater than diclofenac” value in [6] (relative to diclofenac) is 3.7 times. Besides, in series [7], the “inhibition of prostaglandin synthesis, times greater than indomethacin” value is given as “approximately 12 times”. Besides, the “inhibitory effect on COX-2, times more potent than ketorolac” value in [8] is recorded as 18 times. Also, the concentration for half-maximal inhibition (IC50) in series [3] is 23 nM.
With `NC(=O)Cc1cccc(C(=O)c2ccccc2)c1N` [nepafenac, 2-amino-3-benzoyl-benzeneacetamide], the half-inhibitory concentration (IC50) in [1] is 250 nM; in [3], 150 nM. Moreover, the “Ratio COX-1/COX-2” value in [2] worked out at 1.67.
For the compound “Lucentis: recombinant humanized IgG1 kappa isotype monoclonal antibody fragment designed for intravitreal use”, the “rate of arterial thromboembolic events” value in [9] (Lucentis clinical trials) is reported as < 4%. Also, the “serious adverse reactions related to the intravitreal injection procedure” value in series [9] (endophthalmitis, rhegmatogenous retinal detachments, iatrogenic traumatic cataracts) is on record as < 0.1 % of injections. Besides, in [9] (human, in vivo), the “time after intravitreal injection at which increases in intraocular pressure were noted” value is ≤ 60 min. Also, the “other serious ocular adverse reactions” value in series [9] (intraocular inflammation and increased intraocular pressure) is on record as < 2 % of patients.
